Measurements as given in the supplement of paper PMC10307832.

Tests used:
Assay in all cases: relative viability (nuclei count vs DMSO), 5 days (fraction); higher = more cells survive
[1] = compound: C1CNCCC1C2=CC(=NN2)C3=CC=NC=C3 + COc1cc2c(Oc3ccc(NC(=O)C4(C(=O)Nc5ccc(F)cc5)CC4)cc3F)ccnc2cc1OCCCN1CCOCC1 [Foretinib] (partner 0.25 µM)
Method in brief: (§1)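 Lung cancer cell lines were seeded in 1536-well plates and dosed by pin tool the next day, with either a single drug or a fixed anchor-drug dose combined with five library-drug doses (not always all listed) spaced in √10 steps. Five days later, one step fixed the cells and stained their nuclei (final 0.05% Triton X-100, 1% formaldehyde, 1 ug/ml Hoechst), and nuclei were counted on 4× images. Relative viability is the nuclei count in treated wells divided by the count in vehicle wells, and each value is the median of duplicate plates.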

[2] = compound: C[C@@H](N)c1ccc(C(=O)Nc2ccnc3[nH]ccc23)cc1 + CC1(C)CCC(c2ccc(Cl)cc2)=C(CN2CCN(c3ccc(C(=O)NS(=O)(=O)c4ccc(N[C@H](CCN5CCOCC5)CSc5ccccc5)c(S(=O)(=O)C(F)(F)F)c4)cc3)CC2)C1 [Navitoclax] (partner 0.5 µM)
Method in brief: as §1

[3] = compound: O[C@H]1CC[C@H](Nc2ncc3nc(Nc4c(F)cc(F)cc4F)n([C@H]4CCOC4)c3n2)CC1 [Tanzisertib] + CC(=O)Nc1cccc(-n2c(=O)n(C3CC3)c(=O)c3c(Nc4ccc(I)cc4F)n(C)c(=O)c(C)c32)c1 [Trametinib] (partner 0.02 µM)
Method in brief: as §1

[4] = compound: C[C@@H](N)c1ccc(C(=O)Nc2ccnc3[nH]ccc23)cc1 + Cc1nc(NC(=O)N2CCC[C@H]2C(N)=O)sc1-c1ccnc(C(C)(C)C(F)(F)F)c1 [Alpelisib] (partner 2 µM)
Method in brief: as §1

Cell Line	relative viability ([1]; first compound 0.08 µM)	relative viability ([1]; first compound 0.8 µM)	relative viability ([1]; first compound 2.53 µM)	relative viability ([1]; first compound 8 µM)	relative viability ([2]; first compound 0.1265 µM)	relative viability ([2]; first compound 0.4 µM)	relative viability ([2]; first compound 1.265 µM)	relative viability ([2]; first compound 4 µM)	relative viability ([3]; first compound 0.08 µM)	relative viability ([3]; first compound 0.253 µM)	relative viability ([3]; first compound 0.8 µM)	relative viability ([3]; first compound 2.53 µM)	relative viability ([3]; first compound 8 µM)	relative viability ([4]; first compound 0.1265 µM)	relative viability ([4]; first compound 0.4 µM)	relative viability ([4]; first compound 1.265 µM)	relative viability ([4]; first compound 4 µM)	relative viability ([2]; first compound 0.04 µM)	relative viability ([4]; first compound 0.04 µM)
NCI-H2405	1.05	1.04	1.11	1.05	0.799	0.513	0.41	0.279	0.766	0.559	0.565	0.52	0.44	0.783	0.536	0.413	0.217		
NCI-H3122	1.01	0.935	0.942	1.01	1.01	0.981	0.976	0.989	0.262	0.201	0.273	0.245	0.237	0.76	0.827	0.762	0.797	1.05	0.827
PC-3 [JPC-3]	1.01	1.07	1.1	1.04	0.866	0.907	0.897	0.798	0.715	0.759	0.763	0.774	0.612	1.09	1.03	1.12	0.866	0.833	1.1
PC-14	0.942	1.03	1.01	0.942	1.04	0.984	0.935	0.808	0.886	0.673	0.805	0.666	0.295	0.932	1.02	1.02	0.811	0.963	0.925
